Data as given in US6410790B1, “3-amin3-arylpropan-1-ol compounds, their preparation and use” (priority 1999, dated 2002).
pKd: −log10 of the molar value.

How the values were obtained:
[1] = tested on: benzothiazepine binding site of the L-type calcium channel; experiment: Diltiazem binding, L calcium channel; set-up: species or system rat; details: 10 μM, percentage inhibition, [3H]-cis-(+)-diltiazem 5 nM, rat cerebral cortex membranes
Summary of the method: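 Rat cerebral cortex membranes incubated with [^3H]-cis-(+)-diltiazem (5 nM) for 20 min at 25° C; nonspecific binding defined with (±)-diltiazem (10^−6 M). Bound ligand collected by GF/B filtration and counted; IC50 values converted to Ki by Cheng-Prusoff.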

[2] = tested on: phenylquinone-induced writhing reaction; experiment: phenylquinone-induced writhing test in mice; type: in vivo; details: male NMRI mice, phenylquinone i.p. 10 minutes later; for inhibition in vivo at 10 mg/kg: Mus musculus, iv, 10 min, 10 mg/kg intravenously
Summary of the method: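 Male NMRI mice (25–30 g, n=10/group) received test substance i.v. at 10 mg/kg, then 0.02% phenylquinone i.p. 10 min later. Writhing reactions were counted 5–20 min after phenylquinone; % inhibition is relative to saline-treated controls.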

[3] = tested on: binding site 2 of the sodium channel; experiment: BTX binding, sodium channel; details: 10 μM, percentage inhibition, [3H]-batrachotoxin A20 α-benzoate 10 nM, rat cerebral cortex synaptosomes
Summary of the method: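 Rat cerebral cortex synaptosomes incubated with 10 nM [^3H]-batrachotoxin A20 α-benzoate at 37° C for 120 min; non-specific binding defined with 0.3 mM veratridine. IC50 values converted to Ki via Cheng-Prusoff; means±SEM of 3 independent series run in triplicate.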

NA transporter = target: T1, NA transporter (Rattus norvegicus, UniProt Q63380); experiment: synaptosomal noradrenaline uptake inhibition (NA uptake inhibition); type: biochemical; details: for NA Uptake Inhibition at 1 μM: 1 μM in the assay, synaptosomes from rat hypothalamus; for inhibition at 1 µM: read-out: NA Uptake Inhibition at 1 μM, 1 μM in the assay, synaptosomes from rat hypothalamus
T1 construct: synaptosomes are isolated fresh from rat brains; from tissue; host or cells: rat hypothalamus synaptosomes (P2 fraction)
Summary of the method: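 IC50 values converted to Ki via Cheng-Prusoff; Km by Lineweaver-Burk. N=4 independent series, each in triplicate, mean ± SEM.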

[4] = tested on: phenylalkylamine binding site of the L-type calcium channel; experiment: Verapamil binding, L calcium channel; details: for Verapamil Binding at 10 μM: percentage inhibition, N-methyl-[3H]-verapamil 2 nM
Method: Binding Investigations in the L Calcium Channel
Phenylalkylamine Binding Site (Verapamil Binding)
The biological material (ion channel particles) was prepared on the basis of the publication of Reynolds, Gould and Snyder (I. J. Reynolds, R. J. Gould and S. H. Snyder (1983) […]. 95, 319-321).
N-methyl-[^3H]-verapamil (2 nM in the assay) was used as radioligand. The radioactivity that is measured in the presence of non-radioactive verapamil (10^−4 M in the assay) is defined as non-specific binding. The material was incubated at 25° C. for 45 minutes. The material was then filtered using a Whatman GF/B filter, followed by washing. The radioactivity remaining on the filter (ion channel binding) was measured using a β-counter.
For this purpose IC50 values are obtained, which can be converted to inhibitor constants (Ki) according to the “Cheng-Prusoff equation” (Y. C. Clieng and W. H. Prusoff (1973) Biochem. Pharmacol. 22, 3099-3108). The IC50 values were obtained by means of the computer program “Figure P” (version 6.0, Biosoft, Cambridge, England). Km values were calculated according to Lineweaver and Burk (H. Lineweaver and D. Burk (1934) J. Am. Chem. Soc. 56, 658-666). The “Ligand” computer program (version 4, Biosoft, England) was used to obtain Ken values.

T1 sequence (Q63380 1-617): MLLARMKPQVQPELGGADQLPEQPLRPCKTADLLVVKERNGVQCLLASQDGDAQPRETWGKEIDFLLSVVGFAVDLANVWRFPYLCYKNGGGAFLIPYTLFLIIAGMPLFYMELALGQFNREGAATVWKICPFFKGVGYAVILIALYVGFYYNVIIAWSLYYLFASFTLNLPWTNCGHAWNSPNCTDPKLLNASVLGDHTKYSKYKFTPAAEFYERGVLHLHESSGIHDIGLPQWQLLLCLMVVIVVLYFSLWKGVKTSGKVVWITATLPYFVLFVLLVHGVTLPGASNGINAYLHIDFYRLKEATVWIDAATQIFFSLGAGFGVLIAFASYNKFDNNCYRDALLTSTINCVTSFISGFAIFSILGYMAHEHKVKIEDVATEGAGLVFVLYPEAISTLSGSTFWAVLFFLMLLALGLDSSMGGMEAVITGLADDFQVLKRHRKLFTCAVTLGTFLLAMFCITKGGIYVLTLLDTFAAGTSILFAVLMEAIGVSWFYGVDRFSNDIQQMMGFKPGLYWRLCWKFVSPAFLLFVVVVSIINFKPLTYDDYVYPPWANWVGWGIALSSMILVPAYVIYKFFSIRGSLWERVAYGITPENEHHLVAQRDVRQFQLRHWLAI

Compound	Diltiazem Binding at 10 μM [1]	inhibition in vivo at 10 mg/kg [2]	BTX Binding at 10 μM ([3]; hydrochloride)	NA Uptake Inhibition at 1 μM (NA transporter; hydrochloride)	Verapamil Binding at 10 μM ([4]; hydrochloride)	% Inhibition of the writhing reaction at 10 mg/kg intravenously ([2]; hydrochloride, 10 mg/kg)	% Inhibition of the writhing reaction at 10 mg/kg intravenously [2]	BTX Binding at 10 μM [3]	NA Uptake Inhibition at 1 μM (NA transporter)	Verapamil Binding at 10 μM [4]	inhibition at 1 µM (NA transporter)	pKd ([4]; radioligand, N=2, read-out: KD value for this binding site)
CN(C)C(c1ccccc1)C1CCCCC1(O)c1ccc(Cl)c(Cl)c1.Cl (single isomer, unassigned; (+)) [+19, (+)-1-(3,4-dichlorophenyl)-2-(dimethylaminophenylmethyl)cyclohexanol, hydrochloride]	85%	74%	92%	62%	82%							
CN(C)C(c1ccccc1)C1CCCCC1(O)c1ccc(Cl)c(Cl)c1.Cl (single isomer, unassigned; (-)) [−19, (−)-1(3,4-dichlorophenyl)-2-(dimethylaminophenylmethyl)cyclohexanol, hydrochloride]	85%		96%	36%	83%	88%						
COc1cccc(C2(O)CCCCC2C(c2ccccc2)N(C)C)c1.Cl (stereo not shown) [Example 1, 2-(dimethlylaminophenylmethyl)-1-(3-methoxyphenyl)cyclohexanol, hydrochloride]	65%						85%	77%	41%	76%		
CN(C)C(c1ccccc1)C1CCCCC1(O)c1cccc(F)c1.Cl (stereo not shown) [Example 2, 2-(dimethylaminophenylmethyl)-1-(3-fluorophenyl)cyclohexaniol, hydrochloride]	52%						88%	80%	52%	76%		
CN(C)C(c1ccccc1)C1CCCCC1(O)c1ccccc1.Cl (stereo not shown) [Example 3, 2-(dimethylaminophenylmethyl)-1-phenylcyclohexanol, hydrochloride]	50%	83%						78%		68%	41%	
CN(C)C(c1ccccc1)C1CCCCC1(O)c1cccc(O)c1.Cl (stereo not shown) [Example 4]	46%						75%	70%	49%	57%		
COc1ccc(C2(O)CCCCC2C(c2ccccc2)N(C)C)cc1.Cl (stereo not shown) [Example 5, 2-(dimethylaminophenylmethyl)-1-(4-methoxyphenyl)cyclohexanol, hydrochloride]	54%	100%						97%		56%	70%	
CN(C)C(c1ccccc1)C1CCCCC1(O)c1ccc(Cl)cc1.Cl (stereo not shown) [Example 6, 1-(4-chlorophenyl)-2-(dimethylaminophenylmethyl)cyclohexanol, hydrochloride]	96%	83%						90%		60%	51%	
CN(C)C(c1ccccc1)C1CCCCC1(O)c1ccc(F)cc1.Cl (stereo not shown) [Example 7, 2-(dimethylaminophenylmethyl)-1-(4-fluorophenyl)cyclohexanol, hydrochloride]	78%	85%						86%		56%	38%	
CN(C)c1ccc(C2(O)CCCCC2C(c2ccccc2)N(C)C)cc1.Cl (stereo not shown) [Example 10, 1-(4-dimethylaminophenyl)-2-[dimethylaminophenylmethyl]cyclohexanol, hydrochloride]	69%	97%						88%		61%	48%	
CN(C)C(c1ccccc1)C1CCCCC1(O)c1cccc2c1OCO2.Cl (stereo not shown) [Example 11, 1-benzo[1,3]dioxol-4-yl-2-(dimethylaminophenylmethyl)cyclohexanol, hydrochloride]	85%	99%						79%		61%	54%	
CN(C)C(c1ccccc1)C1CCCCC1(O)Cc1ccc(OC(F)(F)F)cc1.Cl (stereo not shown) [Example 16, 2-(dimethylaminophenylmethyl)-1-(4-trifluoromethoxybenzyl)cyclohexanol, hydrochloride]	100%	75%						98%		91%	89%	
CN(C)C(c1ccccc1)C1CCCCC1(O)c1ccoc1.Cl (stereo not shown) [Example 17, 2-(dimethylaminophenylmethyl)-1-furan-3-ylcyclohexanol, hydrochloride]	54%	100%						70%		72%	57%	
CCCCC1(O)CCCCC1C(c1ccccc1)N(C)C.Cl (stereo not shown) [Example 18, 1-butyl-2-(dimethylaminophenylmethyl)cyclohexanol, hydrochloride]	81%	100%						95%		75%	84%	
CN(C)C(c1ccccc1)C1CCCCC1(O)c1ccc(Cl)c(Cl)c1 (stereo not shown) [Example 19, 1-(3,4-dichlorophenyl)-2-(dimethylaminophenylmethyl)-cyclohexanol]								97%	50%	81%		
CN(C)C(c1ccccc1)C1CCCCC1(O)c1ccc2ccccc2c1.Cl (stereo not shown) [Example 21, 2-(dimethylaminophenylmethyl)-1-naphthalene-2-ylcyclohexanol, hydrochloride]	85%	97%						94%		71%	17%	
COc1ccc(CCN(C)CCCC(C#N)(c2ccc(OC)c(OC)c2)C(C)C)cc1OC (stereo not shown) [N-methyl-[^3H]-verapamil, reference compound]												6.86
